From US20060286130A1, “Sterile gelling agents” (priority 2005, published 2006)

Columns and labels:
[1] = Sterilization by gamma irradiation, appearance / degradation of the gelling agent; type: physicochemical; conditions: 25 KGy, 60Cobalt source
Text: In an additional embodiment of the invention, the sterile dried bulk gelling agent is subjected to sterilization by gamma irradiation. […] Other materials in the gelled polymeric dispersion can be processed by other techniques as described above and generally known in the art of preparation of sterile dosage forms.
Sorbitan monostearate prepared in Example 1 was exposed to gamma irradiation at a dose of 25 KGy using a ^60Cobalt source at a contract irradiation laboratory. A dose of 25 KGy is accepted internationally to be sufficient to ensure sterility (British Pharmacopoeia).

[2] = Sterilization by dry heat, appearance of the material; type: physicochemical; conditions: 180° C. for 2 hours
Method: Sorbitan monostearate (Sanyo, Japan) was subjected to sterilization by dry heat at a temperature of 180° C. for 2 hours. […] The material thus obtained though it would pass the test for sterility renders the final product unacceptable for pharmiaceutical use because of the dark brown color it imparts.

Substance	change in appearance after gamma irradiation [1]	appearance after sterilization by dry heat [2]
Sorbitan monostearate [listing 1 of 2 here]	no change in appearance	
Sorbitan monostearate [listing 2 of 2 here]		dark brown colored mass
